According to patent US11896583B2, “Tinostamustine for use in treating ovarian cancer” (EURO-CELTIQUE S.A., priority 2017, dated 2024):

System: tumour spheroids from primary ovarian cancer tissue
Assay: Ovarian cancer spheroid model, ATP assay (CellTiter-Glo) of cell viability / metabolic activity
Method: Fresh primary ovarian cancer samples were obtained after informed consent of the individual patient was given. Patients were recruited following clinical diagnosis, and prior to chemotherapy commencing.
Heterotypic tumour spheroids were prepared from the individual primary ovarian cancer tissue. The tumour samples were mechanically and enzymatically digested using an enzyme cocktail (Roche, Penzberg Germany), cell viability determined using the trypan-blue exclusion test, and spheroids seeded at a cell density of 50,000 using a modified liquid overlay method. After 48 h in cell culture under standard conditions, successful spheroid formation was documented photographically before starting treatment.
Each experiment was repeated six times, and both untreated (medium) control and two positive controls (carboplatin+paclitaxel and vorinostat) were used under the same culture conditions. Treatment efficacy, i.e. treatment-induced reduction of the cellular metabolic activity (cell viability) was analyzed using a standard ATP assay.
Once the feasibility study was completed, tumour spheroids consisting of 50,000 cells were prepared from the individual primary ovarian cancer tissue as described above. After 48 h, spheroid formation was documented photographically before starting treatment. […] Treatment efficacy was evaluated using a standard ATP assay, details of which are provided below.
ATP assay test from Promega: CellTiter-Glo®. The CellTiter-Glo® Luminescent Cell Viability Assay is a homogeneous method to determine the number of viable cells in culture based on quantitation of the ATP present, which signals the presence of metabolically active cells. […] The homogeneous assay procedure involves adding a single reagent (CellTiter-Glo® Reagent) directly to cells cultured in serum-supplemented medium.
The homogeneous “add-mix-measure” format results in cell lysis and generation of a luminescent signal proportional to the amount of ATP present.

| SMILES | metabolic activity (ATP assay) (FIG. 6, patient #5295, 72 h) | reduction in cell viability to (FIG. 1, patient #5284, 5 μM, after 48 h) [%] | reduction in cell viability (compared to the untreated control) (FIG. 1, patient #5284, 7.5 μM) [%] | reduction in cell viability (compared to the untreated control) (FIG. 1, patient #5284, 10 μM) [%] | cell viability compared to control untreated spheroids (FIG. 1, patient #5284, 2.5-10 μM) | reduction in cell viability compared with carboplatin+paclitaxel (FIG. 1, patient #5284, 5, 7.5 and 10 μM, after 48 h) | reduction in cell viability compared with carboplatin+paclitaxel (FIG. 1, patient #5284, 5, 7.5 and 10 μM, after 72 h) | reduction in cell viability compared with vorinostat (FIG. 1, patient #5284, 5, 7.5 and 10 μM, all time points) | time dependence of cell viability (FIG. 1, patient #5284, higher concentrations) | time dependence of cell viability (FIG. 1, patient #5284, lower concentrations, 48 h to 96 h) | efficacy compared with positive controls (FIG. 2, patient #5285, feasibility study) | reduction in cell viability, combination therapy (FIG. 4, n=8, EDO-S101 5 μM, carboplatin 110 μM, paclitaxel 1.79 μM, 72 h) | effect of adding EDO-S101 to other treatments (FIG. 6, patient #5295, 72 h) | efficacy compared with carboplatin (FIG. 6, patient #5295, 72 h) | effect of adding EDO-S101 to other treatments (FIG. 7, patient #5296, 72 h) | metabolic activity (ATP assay) (FIG. 7, patient #5296, 72 h) | metabolic activity (ATP assay) (FIG. 8, patient #5310, 72 h, samples from ovary and omentum) | metabolic activity (ATP assay) (FIG. 9, patient #5311, 72 h) | metabolic activity (ATP assay) (FIG. 10, patient #5329, 72 h) |
| --- | --- | --- | --- | --- | --- | --- | --- | --- | --- | --- | --- | --- | --- | --- | --- | --- | --- | --- | --- |
| CC(=O)O[C@H]1C(=O)[C@@]2(C)[C@H]([C@H](OC(=O)c3ccccc3)[C@]3(O)C[C@H](OC(=O)[C@H](O)[C@@H](NC(=O)c4ccccc4)c4ccccc4)C(C)=C1C3(C)C)[C@]1(OC(C)=O)CO[C@@H]1C[C@@H]2O [paclitaxel, reference compound] | negligible efficacy | – | – | – | – | – | – | – | – | – | – | – | – | – | – | – | – | – | – |
| O=C(CCCCCCC(=O)Nc1ccccc1)NO [vorinostat, reference compound] | negligible efficacy | – | – | – | – | – | – | – | – | – | – | – | – | – | – | – | – | – | – |
| Cn1c(CCCCCCC(=O)NO)nc2cc(N(CCCl)CCCl)ccc21 [EDO-S101, 7-(5-(bis(2-chloroethyl)amino)-1-methyl-1H-benzo[d]imidazol-2-yl)-N-hydroxyheptanamide] | shows a reduction in metabolic activity compared to the negative control | 50 | ~80 | ~80 | A reduction in cell viability was observed | greater than that in spheroids treated with carboplatin+paclitaxel after 48 h | comparable after 72 h | greater than that in spheroids treated with vorinostat at all time points | did not decrease in a time dependent manner | decreased in a time dependent manner | better than both carboplatin+paclitaxel or vorinostat | median reduction in cell viability comparable to carboplatin+paclitaxel, but with enhanced average potency across the experimental group | further reduced metabolic activity when used in combination with carboplatin, paclitaxel and carboplatin+paclitaxel | comparable to that of carboplatin | enhanced efficacy when in combination with carboplatin, paclitaxel and carboplatin+paclitaxel | enhanced reduction in metabolic activity compared to vorinostat, carboplatin or paclitaxel | effective in treating ovarian cancer from the omentum | comparable efficacy to that observed in spheroids treated with vorinostat | comparable or improved activity compared to vorinostat and carboplatin as monotherapies |
